Blank lines part the entries; values can stand above or below the compound they belong to.
System: 565726-208-R1-J5-PDC complex spheroids, growth inhibition
Test: Anticancer human tumor 565726-208-R1-J5-PDC patient-derived pancreatic adenocarcinoma cell line growth inhibition [RAS]
Conditions: for IC50: curve of first compound; for viability, T/C: stronger effect = lower value
Procedure, shortened: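 Multi-cell-type spheroids: tumor cells plus HUVEC endothelial cells and mesenchymal stem cells. RAS-pathway inhibitors were combined with targeted agents, each dosed in half-log steps down from clinical Cmax, or from 10 microM when Cmax was unknown.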

[1] = second compound 0.00316 µM, first compound 0.0316 µM
[2] = second compound 0.00316 µM, first compound 0.1 µM
[3] = second compound 0.00316 µM, first compound 0.316 µM
[4] = second compound 0.00316 µM, first compound 1 µM
[5] = second compound 0.00316 µM, first compound 3.16 µM
[6] = second compound 0.00316 µM, first compound 10 µM
[7] = second compound 0.01 µM, first compound 0.0316 µM
[8] = second compound 0.01 µM, first compound 0.1 µM
[9] = second compound 0.01 µM, first compound 0.316 µM
[10] = second compound 0.01 µM, first compound 1 µM
[11] = second compound 0.01 µM, first compound 3.16 µM
[12] = second compound 0.01 µM, first compound 10 µM
[13] = second compound 0.0316 µM, first compound 0.0316 µM
[14] = second compound 0.0316 µM, first compound 0.1 µM
[15] = second compound 0.0316 µM, first compound 0.316 µM
[16] = second compound 0.0316 µM, first compound 1 µM
[17] = second compound 0.0316 µM, first compound 3.16 µM
[18] = second compound 0.0316 µM, first compound 10 µM
[19] = second compound 0.1 µM, first compound 0.0316 µM
[20] = second compound 0.1 µM, first compound 0.1 µM
[21] = second compound 0.1 µM, first compound 0.316 µM
[22] = second compound 0.1 µM, first compound 1 µM
[23] = second compound 0.1 µM, first compound 3.16 µM
[24] = second compound 0.1 µM, first compound 10 µM
[25] = second compound 0.316 µM, first compound 0.0316 µM
[26] = second compound 0.316 µM, first compound 0.1 µM
[27] = second compound 0.316 µM, first compound 0.316 µM
[28] = second compound 0.316 µM, first compound 1 µM
[29] = second compound 0.316 µM, first compound 3.16 µM
[30] = second compound 0.316 µM, first compound 10 µM
[31] = second compound 1 µM, first compound 0.0316 µM
[32] = second compound 1 µM, first compound 0.1 µM
[33] = second compound 1 µM, first compound 0.316 µM
[34] = second compound 1 µM, first compound 1 µM
[35] = second compound 1 µM, first compound 3.16 µM
[36] = second compound 1 µM, first compound 10 µM
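Note: spheroids exposed to compounds for seven days before readout.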
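Throughout, for viability, T/C: 100% = DMSO vehicle control viability.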

Structure (SMILES): CC1(O)CCCC1n1c(=O)c(C(F)F)cc2cnc(NC3CCN(S(C)(=O)=O)CC3)nc21 (stereo not given) + C=CC(=O)N1CCN(c2nc(OCC3CCCN3C)nc3c(F)c(-c4nc(N)cc(C)c4C(F)(F)F)c(Cl)cc23)C(C)C1
IC50 (second compound 0.00316 µM): 4.25 µM
IC50 (second compound 0.01 µM): 3.86 µM
IC50 (second compound 0.0316 µM): 1.88 µM
IC50 (second compound 0.1 µM): 3.18 µM
IC50 (second compound 0.316 µM): 3.14 µM
IC50 (second compound 1 µM): 3.09 µM
viability, T/C [1]: 84.6%
viability, T/C [2]: 101%
viability, T/C [3]: 69.9%
viability, T/C [4]: 77.8%
viability, T/C [5]: 67.8%
viability, T/C [6]: 7.33%
viability, T/C [7]: 111%
viability, T/C [8]: 116%
viability, T/C [9]: 71.8%
viability, T/C [10]: 78.2%
viability, T/C [11]: 73.2%
viability, T/C [12]: 8.22%
viability, T/C [13]: 122%
viability, T/C [14]: 119%
viability, T/C [15]: 61.8%
viability, T/C [16]: 68.8%
viability, T/C [17]: 59.5%
viability, T/C [18]: 4.81%
viability, T/C [19]: 117%
viability, T/C [20]: 116%
viability, T/C [21]: 63.8%
viability, T/C [22]: 73.9%
viability, T/C [23]: 71.2%
viability, T/C [24]: 8.5%
viability, T/C [25]: 111%
viability, T/C [26]: 116%
viability, T/C [27]: 63%
viability, T/C [28]: 77.1%
viability, T/C [29]: 64.3%
viability, T/C [30]: 7.59%
viability, T/C [31]: 122%
viability, T/C [32]: 112%
viability, T/C [33]: 73.5%
viability, T/C [34]: 89%
viability, T/C [35]: 53%
viability, T/C [36]: 6.97%

Structure (SMILES): CCC(CC)c1cc(NC2CCC(N)C2)n2nccc2n1 (stereo not given) + C=CC(=O)N1CCN(c2nc(OCC3CCCN3C)nc3c(F)c(-c4nc(N)cc(C)c4C(F)(F)F)c(Cl)cc23)C(C)C1
IC50 (second compound 0.00316 µM): 1.93 µM
IC50 (second compound 0.01 µM): 1.7 µM
IC50 (second compound 0.0316 µM): 1.62 µM
IC50 (second compound 0.1 µM): 1.6 µM
IC50 (second compound 0.316 µM): 1.58 µM
IC50 (second compound 1 µM): 1.72 µM
viability, T/C [1]: 152%
viability, T/C [2]: 180%
viability, T/C [3]: 128%
viability, T/C [4]: 110%
viability, T/C [5]: 1.79%
viability, T/C [6]: 2.13%
viability, T/C [7]: 166%
viability, T/C [8]: 179%
viability, T/C [9]: 114%
viability, T/C [10]: 94.6%
viability, T/C [11]: 3.11%
viability, T/C [12]: 1.95%
viability, T/C [13]: 174%
viability, T/C [14]: 170%
viability, T/C [15]: 125%
viability, T/C [16]: 88.1%
viability, T/C [17]: 1.53%
viability, T/C [18]: 2.03%
viability, T/C [19]: 221%
viability, T/C [20]: 184%
viability, T/C [21]: 102%
viability, T/C [22]: 96.2%
viability, T/C [23]: 1.59%
viability, T/C [24]: 2.52%
viability, T/C [25]: 182%
viability, T/C [26]: 169%
viability, T/C [27]: 103%
viability, T/C [28]: 92.5%
viability, T/C [29]: 1.41%
viability, T/C [30]: 2.15%
viability, T/C [31]: 175%
viability, T/C [32]: 176%
viability, T/C [33]: 136%
viability, T/C [34]: 92.7%
viability, T/C [35]: 1.49%
viability, T/C [36]: 1.88%

Structure (SMILES): CCN1CCN(Cc2ccc(Nc3ncc(F)c(-c4cc(F)c5nc(C)n(C(C)C)c5c4)n3)nc2)CC1 + C=CC(=O)N1CCN(c2nc(OCC3CCCN3C)nc3c(F)c(-c4nc(N)cc(C)c4C(F)(F)F)c(Cl)cc23)C(C)C1
IC50 (second compound 0.00316 µM): > 1 µM
IC50 (second compound 0.01 µM): > 1 µM
IC50 (second compound 0.0316 µM): > 1 µM
IC50 (second compound 0.1 µM): > 1 µM
IC50 (second compound 0.316 µM): > 1 µM
IC50 (second compound 1 µM): > 1 µM
viability, T/C (second compound 0.00316 µM, first compound 0.00316 µM): 92.8%
viability, T/C (second compound 0.00316 µM, first compound 0.01 µM): 137%
viability, T/C [1]: 93.5%
viability, T/C [2]: 72.2%
viability, T/C [3]: 82.8%
viability, T/C [4]: 119%
viability, T/C (second compound 0.01 µM, first compound 0.00316 µM): 101%
viability, T/C (second compound 0.01 µM, first compound 0.01 µM): 134%
viability, T/C [7]: 98.2%
viability, T/C [8]: 63%
viability, T/C [9]: 79.2%
viability, T/C [10]: 119%
viability, T/C (second compound 0.0316 µM, first compound 0.00316 µM): 163%
viability, T/C (second compound 0.0316 µM, first compound 0.01 µM): 144%
viability, T/C [13]: 109%
viability, T/C [14]: 77.1%
viability, T/C [15]: 61%
viability, T/C [16]: 103%
viability, T/C (second compound 0.1 µM, first compound 0.00316 µM): 135%
viability, T/C (second compound 0.1 µM, first compound 0.01 µM): 124%
viability, T/C [19]: 83.1%
viability, T/C [20]: 87.4%
viability, T/C [21]: 61.1%
viability, T/C [22]: 118%
viability, T/C (second compound 0.316 µM, first compound 0.00316 µM): 141%
viability, T/C (second compound 0.316 µM, first compound 0.01 µM): 136%
viability, T/C [25]: 85%
viability, T/C [26]: 100%
viability, T/C [27]: 58.8%
viability, T/C [28]: 116%
viability, T/C (second compound 1 µM, first compound 0.00316 µM): 117%
viability, T/C (second compound 1 µM, first compound 0.01 µM): 129%
viability, T/C [31]: 89.5%
viability, T/C [32]: 66%
viability, T/C [33]: 78.2%
viability, T/C [34]: 110%

Continued, in another order:

IC50 (second compound 0.00316 µM): > 10 µM
IC50 (second compound 0.01 µM): > 10 µM
IC50 (second compound 0.0316 µM): > 10 µM
IC50 (second compound 0.1 µM): > 10 µM
IC50 (second compound 0.316 µM): > 10 µM
IC50 (second compound 1 µM): > 10 µM
Structure (SMILES): Cc1nc(N2CCC3(CC2)COC(C)C3N)c(CO)nc1Sc1ccnc(N)c1Cl (stereo not given) + C=CC(=O)N1CCN(c2nc(OCC3CCCN3C)nc3c(F)c(-c4nc(N)cc(C)c4C(F)(F)F)c(Cl)cc23)C(C)C1
viability, T/C [1]: 115%
viability, T/C [2]: 142%
viability, T/C [3]: 71%
viability, T/C [4]: 86.8%
viability, T/C [5]: 117%
viability, T/C [6]: 143%
viability, T/C [7]: 154%
viability, T/C [8]: 134%
viability, T/C [9]: 77.8%
viability, T/C [10]: 87.9%
viability, T/C [11]: 121%
viability, T/C [12]: 148%
viability, T/C [13]: 149%
viability, T/C [14]: 173%
viability, T/C [15]: 77.3%
viability, T/C [16]: 90.5%
viability, T/C [17]: 126%
viability, T/C [18]: 139%
viability, T/C [19]: 162%
viability, T/C [20]: 147%
viability, T/C [21]: 80.6%
viability, T/C [22]: 74.2%
viability, T/C [23]: 138%
viability, T/C [24]: 126%
viability, T/C [25]: 180%
viability, T/C [26]: 136%
viability, T/C [27]: 78.5%
viability, T/C [28]: 76.7%
viability, T/C [29]: 106%
viability, T/C [30]: 140%
viability, T/C [31]: 167%
viability, T/C [32]: 135%
viability, T/C [33]: 78.3%
viability, T/C [34]: 83.4%
viability, T/C [35]: 111%
viability, T/C [36]: 133%

IC50 (second compound 0.00316 µM): > 10 µM
IC50 (second compound 0.01 µM): > 10 µM
IC50 (second compound 0.0316 µM): > 10 µM
IC50 (second compound 0.1 µM): > 10 µM
IC50 (second compound 0.316 µM): > 10 µM
IC50 (second compound 1 µM): > 10 µM
Structure (SMILES): NC1c2ccccc2OC12CCN(c1cnc3c(N4CCCc5ncccc54)n[nH]c3n1)CC2 (stereo not given) + C=CC(=O)N1CCN(c2nc(OCC3CCCN3C)nc3c(F)c(-c4nc(N)cc(C)c4C(F)(F)F)c(Cl)cc23)C(C)C1
viability, T/C [1]: 72.7%
viability, T/C [2]: 94.8%
viability, T/C [3]: 66.4%
viability, T/C [4]: 59.4%
viability, T/C [5]: 75.9%
viability, T/C [6]: 106%
viability, T/C [7]: 83.5%
viability, T/C [8]: 121%
viability, T/C [9]: 70.8%
viability, T/C [10]: 59.3%
viability, T/C [11]: 79.5%
viability, T/C [12]: 102%
viability, T/C [13]: 122%
viability, T/C [14]: 135%
viability, T/C [15]: 61.5%
viability, T/C [16]: 70.8%
viability, T/C [17]: 85%
viability, T/C [18]: 92.4%
viability, T/C [19]: 136%
viability, T/C [20]: 131%
viability, T/C [21]: 88.6%
viability, T/C [22]: 56.3%
viability, T/C [23]: 55%
viability, T/C [24]: 93.7%
viability, T/C [25]: 108%
viability, T/C [26]: 134%
viability, T/C [27]: 59.7%
viability, T/C [28]: 64.7%
viability, T/C [29]: 58.6%
viability, T/C [30]: 104%
viability, T/C [31]: 99.5%
viability, T/C [32]: 109%
viability, T/C [33]: 69.3%
viability, T/C [34]: 61.8%
viability, T/C [35]: 71.4%
viability, T/C [36]: 106%
